# Target: T1, GBA2 (Homo sapiens, UniProt Q9HCG7)
# T1 construct: expressed in transfected cells; host or cells: HEK293T (GBA/GBA2 KO background for the fluorogenic assay; endogenous-GBA background with GBA2 and GBA3 overexpressed for ABPP and intact-cell assays)
# T1 sequence (Q9HCG7 1-927): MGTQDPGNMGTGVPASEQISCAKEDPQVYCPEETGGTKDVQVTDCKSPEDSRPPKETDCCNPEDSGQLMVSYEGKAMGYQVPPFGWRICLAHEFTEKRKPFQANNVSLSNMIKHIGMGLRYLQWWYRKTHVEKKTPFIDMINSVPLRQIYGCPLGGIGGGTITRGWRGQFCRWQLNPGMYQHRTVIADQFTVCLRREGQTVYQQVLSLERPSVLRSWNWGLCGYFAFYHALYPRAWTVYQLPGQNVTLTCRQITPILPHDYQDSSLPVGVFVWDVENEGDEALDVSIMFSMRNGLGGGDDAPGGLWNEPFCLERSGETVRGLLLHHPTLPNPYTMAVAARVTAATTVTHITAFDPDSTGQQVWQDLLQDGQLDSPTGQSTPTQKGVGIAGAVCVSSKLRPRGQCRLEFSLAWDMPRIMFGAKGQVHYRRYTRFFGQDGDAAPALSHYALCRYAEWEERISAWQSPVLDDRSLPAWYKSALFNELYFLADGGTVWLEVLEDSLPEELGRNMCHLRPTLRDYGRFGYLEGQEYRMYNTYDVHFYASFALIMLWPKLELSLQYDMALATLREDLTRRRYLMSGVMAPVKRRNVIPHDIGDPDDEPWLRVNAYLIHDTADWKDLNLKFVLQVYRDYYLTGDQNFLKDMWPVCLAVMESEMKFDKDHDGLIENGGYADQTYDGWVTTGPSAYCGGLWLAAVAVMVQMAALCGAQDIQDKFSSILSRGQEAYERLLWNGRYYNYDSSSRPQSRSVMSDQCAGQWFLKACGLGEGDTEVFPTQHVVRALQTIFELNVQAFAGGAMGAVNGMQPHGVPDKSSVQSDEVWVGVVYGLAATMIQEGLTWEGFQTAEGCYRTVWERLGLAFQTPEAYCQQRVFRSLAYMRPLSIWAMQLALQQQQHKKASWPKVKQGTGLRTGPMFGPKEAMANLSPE
# Experiment: ABP labeling of β-D-glucosidases in HEK293T cell lysate, GBA2
# Format: biochemical
# Settings: 30 min, pH 6.0
# Experimental: We next investigated, by ABPP, the GBA/GBA2/GBA3 activity and selectivity of β‐D‐xylo‐cyclophellitol aziridine ABPs 6 and 8 in comparison to those of GBA‐specific ABP 9 [31] or ABP 10.
# Figure 4 (A) ABP labeling of β‐D‐glucosidases. A lysate of HEK293T cells expressing human GBA, GBA2 and GBA3 was incubated with indicated ABPs (6, 9 or 10) for 30 min at pH 6.0. Fluorescently labeled proteins were visualized after SDS‐PAGE. (B) Labeling with ABP 6 of wild type or mutant GBA2 (E527G nucleophile mutation and D667G acid/base mutation) expressed in HEK293T cells.
# ABP labeling procedure: Glycosidases were labeled with excess fluorescent ABPs at optimum conditions. […] After ABP incubation, proteins were denatured by boiling the samples with 5× Laemmli buffer (50 % (v/v) 1 M Tris‐HCl, pH 6.8, 50 % (v/v) 100 % glycerol, 10 % (w/v) DTT, 10 % (w/v) SDS, 0.01 % (w/v) bromophenol blue) for 5 min at 98 °C, and separated by electrophoresis on 10 % (w/v) SDS‐PAGE gels running continuously at 90 V. Wet slab‐gels were scanned on fluorescence using the Typhoon FLA 9500 (GE Healthcare) at λEX 473 nm and λEM≥510 nm for green fluorescent ABP 8; and at λEX 635 nm and λEM≥665 nm for ABP 6, 9 and 10. ABP‐emitted fluorescence was quantified using ImageQuant software (GE Healthcare, Chicago, IL, USA) and curve‐fitted using Prism 8.0 (GraphPad Software). […]
compound,measurement,value
CN1/C(=C/C=C/C=C/C2=[N+](CCCCCC(=O)NCc3cn(CCCCCCCCN4[C@H]5[C@H](O)[C@@H](O)[C@H](O)C[C@H]54)nn3)c3ccccc3C2(C)C)C(C)(C)c2ccccc21 (stereo partly shown) [ABP 6],labeling pattern of GBA and GBA2,very similar to that of the broad‐specific β‐D‐glucosidase ABP 10
